Results published in article PMC7884711, “Identification of efficient prokaryotic cell-penetrating peptides with applications in bacterial biotechnology” (Communications Biology, 2021).
Where no end group is shown, it is not given here.

Legend:
E. coli DH5α cells [1] = test: Penetration efficiency of TAMRA-labeled CPPs, electroporation-based method, flow cytometry; assay type: cell-based, Escherichia coli; settings: electrocompetent E. coli DH5α, 5 μg TAMRA-CPP, electroporation 1.8 kV; for Cell penetration efficiency (TAMRA fluorescence), Electrooration - Tris buffer: 20 mM Tris-HCl pH 7.5, 1 h; for Cell penetration efficiency (TAMRA fluorescence), Electrooration - DW: distilled water, 1 h
Excerpt: (§1) (Fig. 2a). […] First, we prepared electrocompetent and chemically competent cells.

E. coli DH5α cells [2] = test: Inhibition of bacterial cell growth by CPPs (Max OD600 relative to control); assay type: cell-based, Escherichia coli; settings: for Max OD (%) (Figure 3f): E. coli DH5α diluted 1/1000 in LB, 5 μg TAMRA-CPP (0.1 μg/μL), OD600 monitored 18 h, max OD of treated cells / max OD of control cells
Protocol: E. coli DH5α cells were grown until OD600 = 1 at 37 °C with shaking at 200 rpm. […] Then, cell growth (OD600) was monitored for 18 h by using the Synergy^TM H1 hybrid multi-mode microplate reader (BioTek, Vermont, USA). As a control, we used E. coli cells that were not treated with CPPs.

E. coli DH5α cells [3] = test: Penetration efficiency of TAMRA-labeled CPPs, non-treated cells (control method), flow cytometry; settings: 5 μg TAMRA-labeled CPP (0.1 μg/μL), 1 h, PBS washes
Protocol: For the evaluation and optimization of the electroporation-based method, five efficient CPPs were selected from the previous reports[45],[46] […] The CPP were labeled with TAMRA to trace their penetration into the cytoplasm. First, we prepared electrocompetent and chemically competent cells[46]. As a negative control, we also prepared non-treated cells. After treating the five TAMRA-labeled CPP peptides, either distilled water or 20 mM Tris-Cl (pH = 7.5) was added as a buffer to the E. coli–CPP mixture and incubated at 37 °C for 1 h. After washing the cells, their fluorescence intensities were measured by flow cytometry to quantify CPP delivery efficiency.
Prepared cells at a density of 5 × 10^7 cells/50 μL were treated with 5 μg of TAMRA-labeled CPPs (0.1 μg/μL) and incubated for 1 h at room temperature. After incubation, the cells were washed with 1 × PBS and centrifuged at 7000 rpm for 10 min three times to remove extracellular CPPs.
Then, the cells were washed with 1 × PBS and centrifuged at 7000 rpm for 10 min three times. The fluorescence intensity of the CPPs in E. coli cells was quantitatively measured using a Guava EasyCyte flow cytometer (Millipore, Darmstadt, Germany) with an excitation wavelength of 547 nm and an emission wavelength of 580 nm.

E. coli DH5α cells [4] = test: Penetration efficiency of TAMRA-labeled CPPs, chemical (CaCl2) treatment method, flow cytometry; assay type: cell-based, Escherichia coli; settings: for Cell penetration efficiency (TAMRA fluorescence), Chemical (CaCl2) method - Tris buffer / Cell penetration efficiency (TAMRA fluorescence), Chemical (CaCl2) method - DW: 50 mM CaCl2-treated E. coli DH5α, 5 μg TAMRA-CPP; for Cell penetration efficiency (TAMRA fluorescence), Chemical (CaCl2) method - Tris buffer: 20 mM Tris-Cl pH 7.5, 1 h; for Cell penetration efficiency (TAMRA fluorescence), Chemical (CaCl2) method - DW: 5 × 10^7 cells/50 μL, distilled water, 1 h
Excerpt: as §1

[5] = test system: wild-type and tetA-harboring Methylomonas sp. DH-1; test: NiCl2 susceptibility, colony counts on NMS agar; assay type: cell-based; settings: for Number of colonies, Wild-type cells: Methylomonas sp. DH-1, NMS agar; for Number of colonies, tetA-harboring cells: Methylomonas sp. DH-1 with genomic tetA, NMS agar
Protocol: (§2) To investigate the susceptibility of tetA-harboring E. coli and tetA-harboring Methylomonas sp. DH-1 to NiCl2, wild-type cells and the cells containing the tetA gene in the plasmid (E. coli) or in the genome (Methylomonas sp. DH-1) were incubated in an LB (E. coli) or NMS (Methylomonas sp. DH-1) agar plate with different concentrations of NiCl2 (0.5–8 mM). The optimal NiCl2 concentrations that were determined to counter select tetA-removed cells were 2 mM and 4 mM for E. coli and Methylomonas sp. DH-1, respectively.

[6] = test system: wild-type and tetA plasmid-harboring E. coli; test: NiCl2 susceptibility, colony counts on LB agar; assay type: cell-based, Escherichia coli; settings: for Number of colonies, Plasmid-harboring cells: E. coli with tetA plasmid; for Number of colonies, Plasmid-harboring cells / Number of colonies, Wild-type cells: LB agar, 37 °C 24 h; for Number of colonies, Wild-type cells: E. coli
Excerpt: Additionally, for the counterselection of plasmid-removed cells, we inserted the tetracycline resistance gene (tetA) into the plasmid to be removed. With the plasmid, the cells can survive in tetracycline media but not in Ni^2+ media. Conversely, without the plasmid, the cells cannot survive in tetracycline media but can survive in Ni^2+ media. The tetA gene induces host cells to accumulate twice as much Ni^2+ as normal cells, so tetA-containing cells are more susceptible to NiCl2 toxicity than normal cells. To determine a suitable Ni^2+ concentration for the selection of plasmid-removed cells, wild-type E. coli cells and tetracycline-resistant cells harboring the tetA gene in the plasmid were grown on Luria–Bertani (LB) agar plates containing 1–4 mM NiCl2. As shown in Supplementary Table 1, after incubation at 37 °C for 24 h, wild-type E. coli cells were capable of growing on LB agar plates containing up to 2.2 mM NiCl2. […] Therefore, we chose 2.0 mM NiCl2 as the selection concentration (Supplementary Table 1).
as §2

Q: Which “Cell penetration efficiency (TAMRA fluorescence), Electrooration - Tris buffer” value (E. coli DH5α cells [1]; replicate 1) does the source give for “ppTG1 (GLFKALLKLLKSLWKLLLKA; also: TAMRA label, position not given here) [CPP 16, TAMRA-labeled CPP of the 98-CPP library, one of five used to evaluate delivery methods]” here?
A: 299.308 A.U.

Q: And the “Cell penetration efficiency (TAMRA fluorescence), Electrooration - Tris buffer” value (E. coli DH5α cells [1]; replicate 2)?
A: 307.97 A.U.

Q: And the “Cell penetration efficiency (TAMRA fluorescence), Electrooration - Tris buffer” value (E. coli DH5α cells [1]; replicate 3)?
A: 322.066 A.U.

Q: And the “Cell penetration efficiency (TAMRA fluorescence), Electrooration - DW” value (E. coli DH5α cells [1]; replicate 1)?
A: 116.793 A.U.

Q: And the “Cell penetration efficiency (TAMRA fluorescence), Electrooration - DW” value (E. coli DH5α cells [1]; replicate 2)?
A: 316.678 A.U.

Q: And the “Cell penetration efficiency (TAMRA fluorescence), Electrooration - DW” value (E. coli DH5α cells [1]; replicate 3)?
A: 302.379 A.U.

Q: What about the “Max OD (%) (Figure 3f)” value (E. coli DH5α cells [2]; replicate 1) of the same molecule?
A: 61.1865%

Q: And the “Max OD (%) (Figure 3f)” value (E. coli DH5α cells [2]; replicate 2)?
A: 69.0965%

Q: What about the “Max OD (%) (Figure 3f)” value (E. coli DH5α cells [2]; replicate 3) of the same molecule?
A: 63.3967%

Q: And the “Growth rate (%)” value (E. coli DH5α cells [2]; E. coli growth with CPP, relative to control)?
A: 64.5599%

Q: And the Anti-bacterial activity (E. coli DH5α cells [2]; class (Cytotoxic / Safe), cutoff of 50%)?
A: Safe

Q: And the “Cell penetration efficiency (TAMRA fluorescence), Control” value (from here on “Cell penetration efficiency … Control”) (E. coli DH5α cells [3]; replicate 1)?
A: 21.8791 A.U.

Q: What about the “Cell penetration efficiency … Control” value (E. coli DH5α cells [3]; replicate 2) of the same molecule?
A: 18.0245 A.U.

Q: And the “Cell penetration efficiency … Control” value (E. coli DH5α cells [3]; replicate 3)?
A: 15.0301 A.U.

Q: What about the “Cell penetration efficiency (TAMRA fluorescence), Chemical (CaCl2) method - Tris buffer” value (E. coli DH5α cells [4]; replicate 1) of the same molecule?
A: 251.992 A.U.

Q: What about the “Cell penetration efficiency (TAMRA fluorescence), Chemical (CaCl2) method - Tris buffer” value (E. coli DH5α cells [4]; replicate 2) of the same molecule?
A: 38.28 A.U.

Q: And the “Cell penetration efficiency (TAMRA fluorescence), Chemical (CaCl2) method - Tris buffer” value (E. coli DH5α cells [4]; replicate 3)?
A: 55.663 A.U.

Q: What about the “Cell penetration efficiency (TAMRA fluorescence), Chemical (CaCl2) method - Tris buffer” value (E. coli DH5α cells [4]; replicate 4) of the same molecule?
A: 85.7449 A.U.

Q: What about the “Cell penetration efficiency (TAMRA fluorescence), Chemical (CaCl2) method - Tris buffer” value (E. coli DH5α cells [4]; replicate 5) of the same molecule?
A: 220.921 A.U.

Q: What about the “Cell penetration efficiency (TAMRA fluorescence), Chemical (CaCl2) method - DW” value (E. coli DH5α cells [4]; replicate 1) of the same molecule?
A: 201.023 A.U.

Q: And the “Cell penetration efficiency (TAMRA fluorescence), Chemical (CaCl2) method - DW” value (E. coli DH5α cells [4]; replicate 2)?
A: 237.812 A.U.

Q: What about the “Cell penetration efficiency (TAMRA fluorescence), Chemical (CaCl2) method - DW” value (E. coli DH5α cells [4]; replicate 3) of the same molecule?
A: 176.507 A.U.

Q: And the “Penetration efficiency (TAMRA FI)” value (E. coli DH5α cells [4]; TAMRA fluorescence intensity in E. coli, library screen of 98 CPPs)?
A: 130.52

Q: With `[Cl][Ni][Cl]` [NiCl2] as the molecule, how does the “Number of colonies, Wild-type cells” value ([5]; NiCl2 0.5 mM) read?
A: 180 ± 6.42

Q: And the “Number of colonies, Wild-type cells” value ([5]; NiCl2 1 mM)?
A: 128 ± 10.50

Q: And the “Number of colonies, Wild-type cells” value ([5]; NiCl2 2 mM)?
A: 114 ± 4.04

Q: And the “Number of colonies, Wild-type cells” value ([5]; NiCl2 4 mM)?
A: 87 ± 16.09

Q: What about the “Number of colonies, Wild-type cells” value ([5]; NiCl2 8 mM) of the same molecule?
A: 21 ± 5.03

Q: And the “Number of colonies, Wild-type cells” value ([5]; NiCl2 >8.0 mM)?
A: 0

Q: What about the “Number of colonies, tetA-harboring cells” value ([5]; NiCl2 0.5 mM) of the same molecule?
A: 119 ± 6.42

Q: What about the “Number of colonies, tetA-harboring cells” value ([5]; NiCl2 1 mM) of the same molecule?
A: 125 ± 4.40

Q: What about the “Number of colonies, tetA-harboring cells” value ([5]; NiCl2 2 mM) of the same molecule?
A: 3 ± 2.08

Q: What about the “Number of colonies, tetA-harboring cells” value ([5]; NiCl2 4 mM) of the same molecule?
A: 0

Q: What about the “Number of colonies, tetA-harboring cells” value ([5]; NiCl2 8 mM) of the same molecule?
A: 0

Q: What about the “Number of colonies, tetA-harboring cells” value ([5]; NiCl2 >8.0 mM) of the same molecule?
A: 0

Q: And the “Number of colonies, Plasmid-harboring cells” value ([6]; NiCl2 1.8 mM)?
A: 10.67 ± 2.27

Q: What about the “Number of colonies, Plasmid-harboring cells” value ([6]; NiCl2 1.9 mM) of the same molecule?
A: 4 ± 1.15

Q: What about the “Number of colonies, Plasmid-harboring cells” value ([6]; NiCl2 2 mM) of the same molecule?
A: 0.34 ± 0.19

Q: What about the “Number of colonies, Plasmid-harboring cells” value ([6]; NiCl2 2.1 mM) of the same molecule?
A: 0

Q: What about the “Number of colonies, Plasmid-harboring cells” value ([6]; NiCl2 2.2 mM) of the same molecule?
A: 0

Q: And the “Number of colonies, Plasmid-harboring cells” value ([6]; NiCl2 2.3 mM)?
A: 0

Q: And the “Number of colonies, Plasmid-harboring cells” value ([6]; NiCl2 >2.30 mM)?
A: 0

Q: And the “Number of colonies, Wild-type cells” value ([6]; NiCl2 1.8 mM)?
A: 2492 ± 94.27

Q: What about the “Number of colonies, Wild-type cells” value ([6]; NiCl2 1.9 mM) of the same molecule?
A: 2065.33 ± 181.07

Q: And the “Number of colonies, Wild-type cells” value ([6]; NiCl2 2 mM)?
A: 1010.67 ± 121.71

Q: What about the “Number of colonies, Wild-type cells” value ([6]; NiCl2 2.1 mM) of the same molecule?
A: 776 ± 73.11

Q: And the “Number of colonies, Wild-type cells” value ([6]; NiCl2 2.2 mM)?
A: 29 ± 4.40

Q: What about the “Number of colonies, Wild-type cells” value ([6]; NiCl2 2.3 mM) of the same molecule?
A: 0.67 ± 0.19

Q: And the “Number of colonies, Wild-type cells” value ([6]; NiCl2 >2.30 mM)?
A: 0

Q: And the “NiCl2 concentration up to which wild-type E. coli cells were capable of growing” value ([6]; LB agar plates, 37 °C, 24 h)?
A: 2.2 mM

Q: What about the “Growth of tetA-harboring E. coli cells on plates containing 2.0 mM NiCl2” value ([6]; LB agar plates, 37 °C, 24 h, 2.0 mM NiCl2) of the same molecule?
A: not able to grow
